This is an account of results in US12378247B2, “Mesylate salt of para-topolin, compositions containing said salt and use thereof” (USTAV EXPERIMENTALNI BOTANIKY AV CR, V. V. I., priority 2020, dated 2025).

Series [1] is described as follows: Calcein AM cytotoxicity assay, HELA. In kind it is cell-based. To be noted: human, HeLa cells (cervical carcinoma), 3-day Calcein-AM assay, read-out: Cytotoxic activity IC50. The source says: (§1) Because toxic compounds negatively influence metabolic processes of cells, many standard cytotoxicity assays are based on measurement of metabolisation rate of various artificial substrates. Resulting product is then quantified, for example, by means of spectrometry. The assays can be easily modified for use in 96-well plates. For evaluation of cytotoxicity of the […] of this invention, a microtiter assay based on quantification of metabolisation of Calcein AM was used. The assay is widely used in drug screening programs and in chemosensitivity testing. In live cells, Calcein AM is enzymatically hydrolysed and accumulation of the resulting calcein is manifested by green fluorescence. […]
(§2) Approximately 10,000 cells in 80 μL of medium were seeded into 96-well microtitre plates. […] The fluorescence of free calcein was then quantified using a Fluoroscan Ascent fluorometer (Microsystems), and the percentage of surviving cells in each well was calculated by dividing the OD obtained from each cell with exposed cells by the mean OD obtained from control wells×100%. […]

The nature of series [2]: Calcein AM cytotoxicity assay, K562. In kind it is cell-based. The following applies: human, K562 cells (chronic myelogenous leukaemia), K562, 3-day Calcein-AM assay; read-out: Cytotoxic activity IC50.
Excerpt: as §1, §2

Series [3] in a line: Disproportionation study. It is filed as physicochemical. The following applies: 50 mg in 1 ml distilled water, ca. 48 hours, recrystallized. On the procedure: A 50 mg sample of crystalline para-topolin mesylate salt was dissolved in 1 ml of distilled water, kept in solution for ca. 48 hours and then crystallized and checked by XRPD for disproportionation.
The nature of series [4]: Aqueous solubility (saturated solution, HPLC). In kind it is physicochemical. The following applies: thermodynamic from solid, water, read-out: concentration of saturated solution in water (aqueous solubility). How it is done: Aqueous solubility was measured using the following protocol. Supersaturated solution of para-topolin mesylate salt in water was prepared. The solution was filtrated from visible undissolved particles of the salt to obtain saturated solution. Saturated solution was diluted 1:10 000 and measured using HPLC Alliance Waters 2690 with C18 Symmetry column with the diameter 2.1 mm and 150 mm length with a porosity of 5 μm. The sample was dissolved in the mobile phase (MeOH:HCOONH4-1:9). The sample was washed with a methanol gradient (10-90%, 35 min) at pH 4 and a flow rate of 0.3 ml/min. The absorbances of the components were detected in the UV region at 210-400 nm. The peak area was 2729231. Obtained peak area was compared to area peaks measured at certain concentration and the final concentration of saturated solution was determined.

Series [5] in a line: Calcein AM cytotoxicity assay, G361. In kind it is cell-based. The following applies: human, G361 cells (malignant melanoma); G361, 3-day Calcein-AM assay; read-out: Cytotoxic activity IC50.
Excerpt: as §1, §2

Series [6] is described as follows: Calcein AM cytotoxicity assay, RPMI 8226. In kind it is cell-based. The following applies: human, RPMI 8226 cells (multiple myeloma); RPMI 8226, 3-day Calcein-AM assay; read-out: Cytotoxic activity IC50.
Excerpt: as §1, §2

Series [7] is described as follows: Calcein AM cytotoxicity assay, CEM. It is filed as cell-based. To be noted: human, CEM cells (T-lymphoblastic leukaemia), 3-day Calcein-AM assay, read-out: Cytotoxic activity IC50.
Excerpt: as §1, §2

The subject of series [8] is HeLa (cervical carcinoma). The series is described as follows: Calcein AM cytotoxicity assay, HELA. In kind it is cell-based. To be noted: 3-day Calcein-AM assay, read-out: Cytotoxic activity IC50.
Excerpt: as §1, §2

The subject of series [9] is HL-60 (promyelocytic leukaemia). As to the kind of experiment: Calcein AM cytotoxicity assay, HL60. In kind it is cell-based. To be noted: HL60, 3-day Calcein-AM assay; read-out: Cytotoxic activity IC50.
Excerpt: as §1, §2

The subject of series [10] is K562 (chronic myelogenous leukaemia). The series is described as follows: Calcein AM cytotoxicity assay, K562. To be noted: K562, 3-day Calcein-AM assay; read-out: Cytotoxic activity IC50. It is filed as cell-based.
Excerpt: as §1, §2

The conditions of series [11]: water; reported value; cited from earlier work.
Series [12] deals with G361 (malignant melanoma). As to the kind of experiment: Calcein AM cytotoxicity assay, G361. The following applies: G361, 3-day Calcein-AM assay; read-out: Cytotoxic activity IC50. It is filed as cell-based.
Excerpt: as §1, §2

In series [13] the test system is RPMI 8226 (multiple myeloma). As to the kind of experiment: Calcein AM cytotoxicity assay, RPMI 8226. To be noted: RPMI 8226, 3-day Calcein-AM assay; read-out: Cytotoxic activity IC50. It is filed as cell-based.
Excerpt: as §1, §2

Series [14] relates to CEM (T-lymphoblastic leukaemia). As to the kind of experiment: Calcein AM cytotoxicity assay, CEM. In kind it is cell-based. The following applies: 3-day Calcein-AM assay, read-out: Cytotoxic activity IC50.
Excerpt: as §1, §2

Values joined by “and” are separate entries in the source; they are usually repeats but may differ in a detail not shown here. Equal values may be shown once. Where a name gives a salt, the structure may show the parent alone.

What is called IC50 is the point on the concentration scale where inhibition reaches its midpoint. Turning to `Oc1ccc(CNc2ncnc3nc[nH]c23)cc1` [para-topolin mesylate, 6-(4-hydroxybenzylamino) purine (para-topolin) mesylate (methylsulphonate)], the IC50 at 72 h in series [1], in [2], in series [5], in series [6] and in series [7] was greater than 167 µM throughout. For the same compound, the “Disproportionation (XRPD)” value in [3] is reported as “No signs of disproportionation”. Moreover, the Solubility in series [4] is ~1.2e+06 µM and ~407000 µg/mL.
In the case of `Oc1ccc(CNc2ncnc3nc[nH]c23)cc1` [para-topolin, 6-(4-Hydroxybenzylamino) purine], the half-inhibitory concentration (IC50) in series [8] is greater than 167 µM; in series [9] it was greater than 167 µM; in series [10] it was 140 µM; in [12], greater than 167 µM; in [13] it was greater than 167 µM; in series [14], greater than 167 µM. The “aqueous solubility (reported)” value in [11] was less than 40 µg/mL.
